# According to patent publication US8865759B2, “Use of dithiine-tetracarboximides for controlling phytopathogenic fungi” (priority 2008, dated 2014):
# Experiment: logP determination by HPLC on reversed-phase column (C 18), EEC Directive 79/831 Annex V.A8
# Type: physicochemical
# Settings: reversed-phase C 18, 43° C., acidic range pH 2.7, 0.1% aqueous formic acid/acetonitrile
row,Compound,log P
1,"COCCn1c(=O)c2sc3c(=O)n(CCOC)c(=O)c3sc2c1=O [Compound 12, 2,6-Bis(2-methoxyethyl)-1H,5H-[1,4]dithiino[2,3-c:5,6-c]dipyrrole-1,3,5,7(2H,6H)-tetrone]",log P = 2.55
2,"CC(C(=O)O)n1c(=O)c2sc3c(=O)n(C(C)C(=O)O)c(=O)c3sc2c1=O (centres unmarked) [Compound 24, 2,2′-(1,3,5,7-Tetraoxo-1,3,5,7-tetrahydro-2H,6H-[1,4]dithiino[2,3-c:5,6-c]dipyrrole-2,6-diyl)dipropanoic acid]",log P = 1.76
